Patent US10087436B2, “Electrophysiologically mature cardiomyocytes and methods for making same” (The Regents of the University of California, priority 2014, dated 2018)

Tested on: Ad-Kir2.1-silenced ventricular hESC-CMs
Experiment: Addition of the IK1 blocker Ba2+ to Ad-Kir2.1-silenced ventricular hESC-CMs (patch-clamp)
Format: cell-based, human
Details: 200 μM Ba2+
Description: HESC- and hiPSC-CMs were dissociated into single cells with 1 mg/ml collagenase II and plated on 0.1% gelatin-coated glass coverslips. Electrophysiological experiments were performed using whole-cell patch-clamp technique with an Axopatch 200B amplifier and the pClamp9.2 software (Axon Instruments Inc., Foster City, Calif.). Pipette solution was consisted of (mM): 110 K^+ aspartate, 20 KCl, 1 MgCl2, 0.1 Na-GTP, 5 Mg-ATP, 5 Na2-phospocreatine, 1 EGTA and 10 HEPES, with pH of 7.3. The external Tyrode's solution consisted of (mM): 140 NaCl, 5 KCl, 1 CaCl2, 1 MgCl2, 10 glucose, and 10 HEPES with pH of 7.4. Voltage- and current-clamp recordings were performed at 37° C. within 24 to 48 hours after adenovirus transduction. ESC-CMs were categorized into pacemaker, atrial or ventricular phenotypes based on the maximum diastolic potential (MDP), maximum rate of rise of the AP and AP duration (APD). […] Atrial cells with a triangular AP profile have a faster rate of rise than pacemaker cells, more hyperpolarized MDP or resting membrane potential (RMP), and intermediate APD. […] Different protocols as given in insets were employed to elicit the corresponding currents. […] All blockers were purchased from Sigma.

SMILES: [Ba+2] [Ba^2+]
- firing phenotype upon addition of Ba2+: spontaneously fired APs
